Experimental data: US9045429B2, “Substituted phenoxypyridines” (Bayer Intellectual Property GmbH, priority 2010, dated 2015)

Legend:
HCT116 cells = assay: HCT116 Cell Titer Glo (CTG) Proliferation Assay [Assay 1]; type: cell-based; conditions: HCT-116, HCT116 human colorectal cells, 72 hours incubation
Description: Cell Titer Glo Proliferation Assay
The adherent tumor cell proliferation assay used to test the compounds of the present invention involves a readout called Cell Titre-Glo developed by Promega (Cunningham, BA “A Growing Issue: Cell Proliferation Assays. Modern kits ease quantification of cell growth” The Scientist 2001, 15(13), 26, and Crouch, S P et al., “The use of ATP bioluminescence as a measure of cell proliferation and cytotoxicity” Journal of Immunological Methods 1993, 160, 8 1-88).
Assay 1: HCT116 Cell Titer Glo (CTG) Proliferation Assay:
(§1) HCT116 cells [human colorectal cell line, expressing mutant […]] were plated at a density of 3000 cells/well in 96 well black-clear bottom tissue culture plates (Costar 3603 black/clear bottom) in 100 μl/well DMEM medium (DMEM/Ham's F12) with 10% Fetal Bovine Serum (FBS) and stable Glutamine incubated at 37° C. Sister wells were plated in separate plate for time zero determination. All plates were incubated overnight at 37° C. Take down time zero plate: 100 μl/well CTG solution (Promega Cell Titer Glo solution) were added to time zero wells in sister plate; the plates were mixed for 2 min on orbital shaker to ensure cell lysis, incubated for 10 minutes, luminescence was read on VICTOR 3 (Perkin Elmer). Twenty-four hours after cell seeding, test compounds were diluted in 50 μl medium and were added at a final concentration range from as high 10 μM to as low 300 pM depending on the activities of the tested compounds in serial dilutions at a final DMSO concentration of 0.4%. Cells were incubated for 72 hours at 37° C. after addition of the test compound. Then, using a Promega Cell Titer Glo Luminescent® assay kit, 100 μl microliter lysis buffer containing of the enzyme luciferase and its substrate, luciferin mixture, were added to each well and incubated for 10 min at room temperature in the dark to stabilize luminescence signal. The samples were read on VICTOR 3 (Perkin Elmer) using Luminescence protocol. The percentage change in cell growth was calculated by normalizing the measurements to the extinctions of the zero point plate (=0%) and the extinction of the untreated (0 μM) cells (=100%). The IC50 values were determined by means of a 4-parameter fit using the company's own software.

A375 cells = assay: A375 Crystal Violet (CV) Proliferation Assay [Assay 5]; type: cell-based; conditions: A-375, 96 h; A375 human melanoma cells (BRAF V600E), crystal violet staining, 4 days incubation
Experimental: Assay 5: A375 Crystal Violet (CV) Proliferation Assay:
Cell proliferation for A375 cells [human melanoma cell line, expressing mutant BRAF V600E] was measured by crystal violet (CV) staining: Cultivated human A375 cells were plated out in a density of 1500 cells/measurement point in 200 μl of growth medium (DMEM/HAMS F12 with 10% FBS and 2 mM Glutamine) in a 96-well multititer plate. After 24 hours, the cells from a plate (zero plate) were stained with crystal violet (see below), while the medium in the other plates was replaced by fresh culture medium (200 μl) to which the test substances had been added in various concentrations (0 μM, and in the range 0.3 nM-30 μM; the final concentration of the solvent dimethyl sulphoxide was 0.5%). The cells were incubated in the presence of the test substances for 4 days. The cell proliferation was determined by staining the cells with crystal violet: the cells were fixed by adding 20 μl/measurement point of an 11% glutaraldehyde solution at room temperature for 15 min. After the fixed cells had been washed three times with water, the plates were dried at room temperature. The cells were stained by adding 100 μl/measurement point of a 0.1% crystal violet solution (pH adjusted to pH 3 by adding acetic acid). After the stained cells had been washed three times with water, the plates were dried at room temperature. The dye was dissolved by adding 100 μl/measurement point of a 10% acetic acid solution, and the extinction was determined by photometry at a wavelength of 595 nm. The percentage change in cell growth was calculated by normalizing the measurements to the extinctions of the zero point plate (=0%) and the extinction of the untreated (0 μM) cells (=100%). The IC50 values were determined by means of a 4-parameter fit using the company's own software.

A549 cells = assay: A549 Cell Titer Glo (CTG) Proliferation Assay [Assay 2]; type: cell-based; conditions: A549 human non small cell lung cancer cells (K-Ras G12S), 72 hours incubation
Experimental: as §1
Assay 2: A549 Cell Titer Glo (CTG) Proliferation Assay:
A549 cells [human non small cell lung cancer cell line, expressing mutant K-Ras G12S] were seeded at a density of 2000 cells/well in 96 well black-clear bottom tissue culture plates (Costar 3603 black/clear bottom) in 100 μl/well DMEM medium (DMEM/Ham's F12) with 10% Fetal Bovine Serum (FBS) and stable Glutamine incubated at 37° C. Cell Titer Glo proliferation assays for A549 cells were performed with the same protocol as described afore for HCT116 cells.

colon cancer = conditions: oral treatment, mouse models, literature [18]; cited from earlier work
MEK1/2 = MEK1/2 inhibitor, literature [17]; cited from earlier work

IC50 (HCT116 cells) [µM] | IC50 (A375 cells) [µM] | IC50 (A549 cells) [µM] | SMILES | colon cancer growth in vivo (colon cancer) | IC50 (MEK1/2)
0.0336 | 0.00125 | 0.0498 | C#Cc1ccc(Nc2cncc(Oc3cccc(NS(=O)(=O)CC)c3)c2C(N)=O)c(F)c1 [Example 14, 3-{3-[(ethylsulfonyl)amino]phenoxy}-5-[(4-ethynyl-2-fluorophenyl)amino]isonicotinamide] | – | –
– | 0.0333 | – | CC(C)(O)C(O)CCOc1cncc(Nc2ccc(I)cc2F)c1C(N)=O (stereo not shown) [Example 12, 3-[(3,4-dihydroxy-4-methylpentyl)oxy]-5-[(2-fluoro-4-iodophenyl)amino]isonicotinamide] | – | –
0.0111 | 0.000411 | 0.0143 | CC(C)S(=O)(=O)Nc1cccc(Oc2cncc(Nc3ccc(I)cc3F)c2C(N)=O)c1 [Example 4, 3-[(2-fluoro-4-iodophenyl)amino]-5-{3[(isopropylsulfonyl)amino]phenoxy}isonicotinamide] | – | –
0.0188 | 0.000775 | 0.0227 | CS(=O)(=O)Nc1cccc(Oc2cncc(Nc3ccc(I)cc3F)c2C(N)=O)c1 [Example 5, 3-[(2-fluoro-4-iodophenyl)amino]-5-{3-[(methylsulfonyl)amino]phenoxy}isonicotinamide] | – | –
0.214 | 0.000676 | 0.377 | NC(=O)c1c(Nc2ccc(I)cc2F)cncc1Oc1cccc(N)c1 [Example 3, 3-(3-aminophenoxy)-5-[(2-fluoro-4-iodophenyl)amino]isonicotinamide] | – | –

Continued, molecule first:

SMILES | IC50 (HCT116 cells) [µM] | IC50 (A375 cells) [µM] | IC50 (A549 cells) [µM] | colon cancer growth in vivo (colon cancer) | IC50 (MEK1/2)
CC(=O)Nc1cccc(Oc2cncc(Nc3ccc(I)cc3F)c2C(N)=O)c1 [Example 8, 3-(3-acetamidophenoxy)-5-[(2-fluoro-4-iodophenyl)amino]isonicotinamide] | 0.195 | 0.00492 | 0.335 | – | –
NC(=O)c1c(Nc2ccc(I)cc2F)cncc1Oc1ccc2oc(=O)[nH]c2c1 [Example 1, 3-[(2-fluoro-4-iodophenyl)amino]-5-[(2-oxo-2,3-dihydro-1,3-benzoxazol-5-yl)oxy]isonicotinamide] | 0.045 | 0.00231 | 0.059 | – | –
CCC(=O)Nc1cccc(Oc2cncc(Nc3ccc(I)cc3F)c2C(N)=O)c1 [Example 9, 3-[(2-fluoro-4-iodophenyl)amino]-5-[3-(propionylamino)phenoxy]isonicotinamide] | 0.44 | 0.0088 | 0.882 | – | –
NC(=O)c1c(Nc2ccc(I)cc2F)cncc1Oc1cccc(NS(=O)(=O)C2CC2)c1 [Example 7, 3-{3-[(cyclopropylsulfonyl)amino]phenoxy}-5-[(2-fluoro-4-iodophenyl)amino]isonicotinamide] | 0.00971 | 0.0152 | 0.017 | – | –
COc1cncc(Nc2ccc(I)cc2F)c1C(N)=O [Example 15, 3-[(2-fluoro-4-iodophenyl)amino]-5-methoxyisonicotinamide] | – | 0.118 | – | – | –
CC(C)C(=O)Nc1cccc(Oc2cncc(Nc3ccc(I)cc3F)c2C(N)=O)c1 [Example 10, 3-[(2-fluoro-4-iodophenyl)amino]-5-[3-(isobutyrylamino)phenoxy]isonicotinamide] | 1.12 | 0.0215 | 1.67 | – | –
O=C(NOCC1CC1)c1ccc(F)c(F)c1Nc1ccc(I)cc1Cl [PD184352] | – | – | – | inhibit colon cancer growth | low nanomolar range
CCS(=O)(=O)Nc1cccc(Oc2cncc(Nc3ccc(I)cc3F)c2C(N)=O)c1 [Example 6, 3-{3-[(ethylsulfonyl)amino]phenoxy}-5-[(2-fluoro-4-iodophenyl)amino]isonicotinamide] | 0.011 | 0.0153 | 0.0148 | – | –
